One data set relates to HIV-13B in MT4 cells. The data set is described as follows: Antiviral activity: inhibition of the cytopathic effect of HIV in MT4 cells. Format: cell-based, HIV-1. The following applies: Human immunodeficiency virus 1, MT4; read-out: IC50. Background: Damage to the host cells serves as the signal in cytopathic effect assays.
The nature of a further data set: in vitro. The following applies: human. Format: cell-based. An excerpt:
The anti-HIV activity of the compounds of the invention can be determined in MT4 cells according to the procedure of Kempf, et. al. (Antimicrob. Agents Chemother. 1991, 35, 2209).

In a further data set the target is HIV-1 protease (Human immunodeficiency virus type 1 group M subtype B, UniProt P04585). The data set can be described thus: Fluorogenic assay for screening inhibitors of HIV protease. Conditions: Inhibitor Concentration 0.5 nanomolar, fluorogenic substrate, pH 4.5, read-out: Percent Inhibition. Format: biochemical. As for the experimental part: The inhibitory potency of the compounds of the invention can be determined by the following method.
A compound of the invention is dissolved in DMSO and a small aliquot further diluted with DMSO to 100 times the final concentration desired for testing. The reaction is carried out in a 6×50 mm tube in a total volume of 300 microliters. The final concentrations of the components in the reaction buffer are: 125 mM sodium acetate, 1 M sodium chloride, 5 mM dithiothreitol, 0.5 mg/ml bovine serum albumin, 1.3 μM fluorogenic substrate, 2% (v/v) dimethylsulfoxide, pH 4.5. After addition of inhibitor, the reaction mixture is placed in the fluorometer cell holder and incubated at […] for several minutes. The reaction is initiated by the addition of a small aliquot of cold HIV protease. The fluorescence intensity (excitation 340 nm, emission 490 nm) is recorded as a function of time. The reaction rate is determined for the first six to eight minutes. The observed rate is directly proportional to the moles of substrate cleaved per unit time. The percent inhibition is 100×(1-(rate in presence of inhibitor)/(rate in absence of inhibitor)).
Fluorogenic substrate: Dabcyl-[…]EDANS wherein DABCYL=4-(4-dimethylamino-phenyl)azobenzoic acid and EDANS=5-((2-aminoethyl)amino)-naphthalene-1-sulfonic acid.

pIC50: −log10 of the molar value. Some results are limits rather than exact numbers.

As usually defined, the pIC50 is the IC50 on a negative log10 scale, so that one unit is a factor of ten. A word on the CC50: it is the concentration giving 50% cytotoxicity. Higher therefore signals better tolerance by the cells. As for `CC(C)[C@H](NC(=O)OCc1csc(N2CCCC2)n1)C(=O)N[C@@H](Cc1ccccc1)[C@@H](O)C[C@H](Cc1ccccc1)NC(=O)OCc1cncs1` [Example 14, (2S,3S,5S)-2-(N-(N-((2-(1-Pyrrolidinyl)-4-thiazolyl)-methoxycarbonyl)valinyl)amino)-5-(N-((5-thiazolyl)-methoxycarbonyl)amino)-1,6-diphenyl-3-hydroxyhexane], the negative logarithm of the IC50 (pIC50) in the data set with HIV-13B in MT4 cells was 6.66 to 6.85. For the same molecule, the CC50 in the data set “in vitro” is over 100000 nM. Broadly, the inhibition is the drop in the measured response relative to a control, in per cent. On to `CC(C)[C@H](NC(=O)N(C)Cc1csc(C2CCCC2)n1)C(=O)N[C@@H](Cc1ccccc1)C[C@H](O)[C@H](Cc1ccccc1)NC(=O)OCc1cncs1` [Example 58, (2S,3S,5S)-5-(N-(N-((N-Methyl-N-((2-cyclopentyl-4-thiazolyl)methyl)amino)carbonyl)valinyl)amino)-2-(N-((5-thiazolyl)methoxycarbonyl)amino)-1,6-diphenyl-3-hydroxyhexane], for which the inhibition at 0.0005 µM at HIV-1 protease is 49%. For the same molecule, the negative logarithm of the IC50 (pIC50) with HIV-13B in MT4 cells is 7.34 to 7.52. This molecule also yielded a 50% cytotoxic concentration (CC50) in “in vitro” of 18000 nM. Take `CC(C)[C@H](NC(=O)OCc1csc(N(C)C)n1)C(=O)N[C@@H](Cc1ccccc1)C[C@H](O)[C@H](Cc1ccccc1)NC(=O)OCc1cncs1` [Example 9, (2S,3S,5S)-5-(N-(N-((2-(N,N-Dimethylamino)-4-thiazolyl)methoxycarbonyl)valinyl)amino)-2-(N-((5-thiazolyl)methoxycarbonyl)amino)-1,6-diphenyl-3-hydroxyhexane]: the negative logarithm of the IC50 (pIC50) in the data set with HIV-13B in MT4 cells is 7.00 to 7.10. This molecule came in with a CC50 in the data set “in vitro” of 62000 nM. The matching figures for `CC(C)c1nc(COC(=O)N[C@H](C(=O)N[C@H](Cc2cncs2)C[C@H](O)[C@H](Cc2ccccc2)NC(=O)OCc2cncs2)C(C)C)cs1` [Example 64, (2S,3S,5S)-5-(N-(N-((2-Isopropyl-4-thiazolyl)methoxycarbonyl)valinyl)amino)-1-phenyl-2-(N-((5-thiazolyl)methoxycarbonyl)amino)-6-(5-thiazolyl)-3-hydroxyhexane]: 6.89 to 7.00 and over 100000 nM. The matching figures for `CC(C)c1nc(CN(C)C(=O)N[C@H](C(=O)N[C@H](Cc2cncs2)C[C@H](O)[C@H](Cc2ccccc2)NC(=O)OCc2cncs2)C(C)C)cs1` [Example 8, (2S,3S,5S)-5-(N-(N-((N-Methyl-N-((2-isopropyl-4-thiazolyl)methyl)amino)carbonyl)valinyl)amino)-1-phenyl-2-(N-((5-thiazolyl)methoxycarbonyl)amino)-6-(5-thiazolyl)-3-hydroxyhexane]: 7.02 to 7.24 and 97000 nM. With `CC(C)c1nc(CN(C)C(=O)N[C@H](C(=O)N[C@@H](Cc2ccccc2)C[C@H](O)[C@H](Cc2ccccc2)NC(=O)OCc2cnc(C(C)C)s2)C(C)C)cs1` [Example 45, (2S,3S,5S)-5-(N-(N-((N-Methyl-N-((2-isopropyl-4-thiazolyl)methyl)amino)carbonyl)valinyl)amino)-2-(N-(((2-isopropyl)-5-thiazolyl)methoxycarbonyl)amino)-1,6-diphenyl-3-hydroxyhexane], the inhibition at 0.0005 µM at HIV-1 protease amounted to 50%. For the same molecule, the pIC50 in the data set on HIV-13B in MT4 cells was 7.40 to 7.44. As for `CC(C)Cc1nc(CN(C)C(=O)N[C@H](C(=O)N[C@@H](Cc2ccccc2)C[C@H](O)[C@H](Cc2ccccc2)NC(=O)OCc2cncs2)C(C)C)cs1` [Example 59, (2S,3S,5S)-5-(N-(N-((N-Methyl-N-((2-isobutyl-4-thiazolyl)methyl)amino)carbonyl)valinyl)amino)-2-(N-((5-thiazolyl)methoxycarbonyl)amino)-1,6-diphenyl-3-hydroxyhexane], the inhibition at 0.0005 µM at HIV-1 protease worked out at 39%. Moreover, the pIC50 with HIV-13B in MT4 cells was 6.89 to 6.96. This molecule also came in with a half-maximal cytotoxic concentration (CC50) in the data set “in vitro” of 18000 nM. On to `CC(C)[C@H](NC(=O)N(C)Cc1csc(N2CCCC2)n1)C(=O)N[C@@H](Cc1ccccc1)C[C@H](O)[C@H](Cc1ccccc1)NC(=O)OCc1cncs1` [Example 46, (2S,3S,5S)-5-(N-(N-((N-Methyl-N-((2-(1-pyrrolidinyl)-4-thiazolyl)methyl)amino)carbonyl)valinyl)amino)-2-(N-((5-thiazolyl)methoxycarbonyl)amino)-1,6-diphenyl-3-hydroxyhexane], for which, at HIV-1 protease, the inhibition at 0.0005 µM is 46%. For the same molecule, the negative-log IC50 (pIC50) in the data set with HIV-13B in MT4 cells was 6.77 to 7.00. Turning to `CC(C)[C@H](NC(=O)N(C)Cc1csc(N2CCCC2)n1)C(=O)N[C@@H](Cc1ccccc1)C[C@H](O)[C@H](Cc1ccccc1)NC(=O)OCc1ccno1` [Example 49, (2S,3S,5S)-5-(N-(N-((N-Methyl-N-((2-(1-pyrrolidinyl)-4-thiazolyl)methyl)amino)carbonyl)valinyl)amino)-2-(N-((5-isoxazolyl)methoxycarbonyl)amino)-1,6-diphenyl-3-hydroxyhexane], the pIC50 in the data set on HIV-13B in MT4 cells is 6.89 to 7.09. This molecule displayed a CC50 in “in vitro” of 38000 nM. With `CC(C)c1nc(CN(C(=O)N[C@H](C(=O)N[C@@H](Cc2ccccc2)C[C@H](O)[C@H](Cc2ccccc2)NC(=O)OCc2cncs2)C(C)C)C2CC2)cs1` [Example 17, (2S,3S,5S)-5-(N-(N-((N-Cyclopropyl-N-((2-isopropyl-4-thiazolyl)methyl)amino)carbonyl)valinyl)amino)-2-(N-((5-thiazolyl)methoxycarbonyl)amino)-1,6-diphenyl-3-hydroxyhexane], the pIC50 with HIV-13B in MT4 cells was 6.51 to 6.64. The same measure, in the same setting: the figure for `CC(C)c1nc(CN(C(=O)N[C@@H](C)C(=O)N[C@@H](Cc2ccccc2)C[C@H](O)[C@H](Cc2ccccc2)NC(=O)OCc2cncs2)C2CC2)cs1` [Example 15, (2S,3S,5S)-5-(N-(N-((N-Cyclopropyl-N-((2-isopropyl-4-thiazolyl)methyl)amino)carbonyl)alaninyl)amino)-2-(N-((5-thiazolyl)methoxycarbonyl)amino)-1,6-diphenyl-3-hydroxyhexane] is 6.17 to 6.37; for `CC(C)[C@H](NC(=O)N(C)Cc1csc(C2CCC2)n1)C(=O)N[C@@H](Cc1ccccc1)C[C@H](O)[C@H](Cc1ccccc1)NC(=O)OCc1cncs1` [Example 52, (2S,3S,5S)-5-(N-(N-((N-Methyl-N-((2-cyclobutyl-4-thiazolyl)methyl)amino)carbonyl)valinyl)amino)-2-(N-((5-thiazolyl)methoxycarbonyl)amino)-1,6-diphenyl-3-hydroxyhexane] it is 7.38 to 7.46. On the same count and under the same terms, in the case of `CCc1nc(CN(C)C(=O)N[C@H](C(=O)N[C@@H](Cc2ccccc2)C[C@H](O)[C@H](Cc2ccccc2)NC(=O)OCc2cncs2)C(C)C)co1` [Example 41, (2S,3S,5S)-5-(N-(N-((N-Methyl-N-((2-ethyl-4-oxazolyl)methyl)amino)carbonyl)valinyl)amino)-2-(N-((5-thiazolyl)methoxycarbonyl)amino)-1,6-diphenyl-3-hydroxyhexane] it was 7.70 to 7.82.

Turning to `CCc1nc(CN(C)C(=O)N[C@H](C(=O)N[C@@H](Cc2ccccc2)C[C@H](O)[C@H](Cc2ccccc2)NC(=O)OCc2cncs2)C(C)C)cs1` [Example 53, (2S,3S,5S)-5-(N-(N-((N-Methyl-N-((2-ethyl-4-thiazolyl)methyl)amino)carbonyl)valinyl)amino)-2-(N-((5-thiazolyl)methoxycarbonyl)amino)-1,6-diphenyl-3-hydroxyhexane], in the data set on HIV-13B in MT4 cells, the pIC50 was 7.14 to 7.49. With `CC(C)c1nc(CCOC(=O)N[C@H](C(=O)N[C@@H](Cc2ccccc2)[C@@H](O)C[C@H](Cc2ccccc2)NC(=O)OCc2cncs2)C(C)C)cs1` [Example 48, (2S,3S,5S)-2-(N-(N-((2-(2-Isopropyl-4-thiazolyl)ethoxy)carbonyl)valinyl)amino)-5-(N-((5-thiazolyl)methoxycarbonyl)amino)-1,6-diphenyl-3-hydroxyhexane], in the data set on HIV-13B in MT4 cells, the pIC50 is 6.96 to 7.05. The CC50 in the data set “in vitro” was over 100000 nM.
